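In this assay, cells in 96-well plates receive the compound at five concentrations for 48 hours. Endpoints are linearly interpolated between the surrounding concentrations. GI50 is the concentration that inhibits growth by half. Definition used: TGI = concentration required for complete inhibition of growth.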
Columns and labels:
Test in all cases: DTP human tumour cell line panel, 48 h
[1] = system: U251 CNS
[2] = system: SK-MEL-28 melanoma
[3] = system: MOLT-4 leukemia
[4] = system: A498 renal
[5] = system: NCI-H226 lung
[6] = system: NCI-H23 lung
[7] = system: OVCAR-5 ovarian
[8] = system: RXF 393 renal
[9] = system: HOP-62 NSCLC
[10] = system: A549 NSCLC
[11] = system: UACC-62 melanoma
[12] = system: PC-3 prostate
[13] = system: DU-145 prostate
[14] = system: NCI/ADR-RES ovarian
[15] = system: ACHN renal
[16] = system: LOX IMVI melanoma
[17] = system: SNB-19 CNS
[18] = system: SK-MEL-2 melanoma
[19] = system: IGROV1 ovarian
[20] = system: UO-31 renal
[21] = system: KM12 colon
[22] = system: SNB-75 CNS
[23] = system: TK-10 renal
[24] = system: SR leukemia
[25] = system: OVCAR-3 ovarian
[26] = system: HS 578T breast
[27] = system: HCT-116 colon
[28] = system: BT-549 breast
[29] = system: MCF7 breast
[30] = system: SF-268 CNS
[31] = system: HOP-92 NSCLC
[32] = system: HCT-15 colon
[33] = system: EKVX NSCLC
[34] = system: COLO 205 colon
[35] = system: HL-60(TB) leukemia
[36] = system: SF-295 CNS
[37] = system: SK-OV-3 ovarian
[38] = system: MALME-3M melanoma
[39] = system: 786-0 renal
[40] = system: HCC-2998 colon
[41] = system: OVCAR-8 ovarian
[42] = system: SF-539 CNS
[43] = system: CCRF-CEM leukemia
[44] = system: SN12C renal
[45] = system: NCI-H522 lung
[46] = system: MDA-MB-231 breast
[47] = system: SW-620 colon
[48] = system: HT29 colon
[49] = system: OVCAR-4 ovarian
[50] = system: T-47D breast
[51] = system: RPMI-8226 leukemia
[52] = system: UACC-257 melanoma
[53] = system: MDA-MB-435
[54] = system: M14 melanoma
[55] = system: SK-MEL-5 melanoma
[56] = system: K-562 leukemia
[57] = system: CAKI-1 renal
[58] = system: NCI-H460 lung

CCN(CC)CCOc1ccc(C(=C(C)c2ccc(OC)cc2)c2ccc(OCCN(CC)CC)cc2)cc1
GI50 [1]: 876 nM
TGI [1]: 2000 nM
GI50 [2]: 856 nM
TGI [2]: 1620 nM
GI50 [3]: 1340 nM
TGI [3]: 5.25 µM
GI50 [4]: 997 nM
TGI [4]: 2470 nM
GI50 [5]: 2430 nM
TGI [5]: 10.3 µM
GI50 [6]: 1470 nM
TGI [6]: 5.52 µM
GI50 [7]: 1570 nM
TGI [7]: 5.68 µM
GI50 [8]: 738 nM
TGI [8]: 1500 nM
GI50 [9]: 1440 nM
TGI [9]: 4.76 µM
GI50 [10]: 1520 nM
TGI [10]: 6.02 µM
GI50 [11]: 887 nM
TGI [11]: 1700 nM
GI50 [12]: 1180 nM
TGI [12]: 4.29 µM
GI50 [13]: 2090 nM
TGI [13]: 8.17 µM
GI50 [14]: 1700 nM
TGI [14]: 6.5 µM
GI50 [15]: 1140 nM
TGI [15]: 2750 nM
GI50 [16]: 530 nM
TGI [16]: 1220 nM
GI50 [17]: 1610 nM
TGI [17]: 5.39 µM
GI50 [18]: 1030 nM
TGI [18]: 2140 nM
GI50 [19]: 1290 nM
TGI [19]: 3.1 µM
GI50 [20]: 789 nM
TGI [20]: 1500 nM
GI50 [21]: 1800 nM
TGI [21]: 6.95 µM
GI50 [22]: 7.59 µM
TGI [22]: 17.5 µM
GI50 [23]: 1150 nM
TGI [23]: 3.28 µM
GI50 [24]: 289 nM
TGI [24]: 50 µM
GI50 [25]: 1240 nM
TGI [25]: 3.62 µM
GI50 [26]: 1090 nM
TGI [26]: 3.15 µM
GI50 [27]: 614 nM
TGI [27]: 1600 nM
GI50 [28]: 1030 nM
TGI [28]: 2920 nM
GI50 [29]: 275 nM
TGI [29]: 1100 nM
GI50 [30]: 1210 nM
TGI [30]: 3.43 µM
GI50 [31]: 627 nM
TGI [31]: 1890 nM
GI50 [32]: 731 nM
TGI [32]: 1870 nM
GI50 [33]: 2010 nM
TGI [33]: 8.15 µM
GI50 [34]: 1060 nM
TGI [34]: 2350 nM
GI50 [35]: 1270 nM
TGI [35]: 2860 nM
GI50 [36]: 883 nM
TGI [36]: 1750 nM
GI50 [37]: 1270 nM
TGI [37]: 3.17 µM
GI50 [38]: 832 nM
TGI [38]: 1640 nM
GI50 [39]: 761 nM
TGI [39]: 1800 nM
GI50 [40]: 1050 nM
TGI [40]: 2390 nM
GI50 [41]: 1680 nM
TGI [41]: 6.37 µM
GI50 [42]: 875 nM
TGI [42]: 1650 nM
GI50 [43]: 1260 nM
TGI [43]: 5.87 µM
GI50 [44]: 972 nM
TGI [44]: 2400 nM
GI50 [45]: 1010 nM
TGI [45]: 2240 nM
GI50 [46]: 973 nM
TGI [46]: 2080 nM
GI50 [47]: 936 nM
TGI [47]: 2020 nM
GI50 [48]: 665 nM
TGI [48]: 2030 nM
GI50 [49]: 1060 nM
TGI [49]: 2460 nM
GI50 [50]: 747 nM
TGI [50]: 2070 nM
GI50 [51]: 1140 nM
TGI [51]: 3.24 µM
GI50 [52]: 942 nM
TGI [52]: 1880 nM
GI50 [53]: 903 nM
TGI [53]: 1760 nM
GI50 [54]: 936 nM
TGI [54]: 1890 nM
GI50 [55]: 873 nM
TGI [55]: 1630 nM
GI50 [56]: 874 nM
TGI [56]: 3.8 µM
GI50 [57]: 978 nM
TGI [57]: 2300 nM
GI50 [58]: 1440 nM
TGI [58]: 4.47 µM

From PubChem BioAssay (NCI)
